# From patent US20260344621A1, “CHEMICAL DISBUDDING METHOD” (WELFARE CONCEPTS LIMITED, priority 2022, published 2026)
# Entries after “also recorded” stand apart in the source; their conditions may differ. Where a name gives a salt, the structure may show the parent alone.
# What was measured:
# horn buds [1] = experiment: Example 3: growth rate of horn buds / efficacy of mepacrine and eugenol formulations; type: in vivo, calves (4 to 6 days old); settings: for Height of right horn bud on 40th day / Height of right horn bud on 80th day / Horn growth rate (height of horn buds on 80th day minus height on 40th day), right horn bud: individual calf
# Description: Sixteen calves (4 to 6 days old) obtained from commercial dairy farms were used in this study. The calves were randomly assigned to receive one of the four formulations (Table 3). Animals were gently restrained and the hair around the horn bud region was clipped. […] The left horn bud acted as control. The details of the treatment are given in the below Table 3. […] The differences in the growth rate of the right and left horn buds were determined by measuring the height of the horn buds at regular intervals. Photos of the horn buds were taken at the same time. Calves will be euthanized after 4 months by intravenous injection of pentobarbitone sodium (100 mg/kg bodyweight) for gross pathology and histopathology of horn buds.
# [2] = Example 3: pain related behaviors and adverse effects following injection; type: in vivo, calves (4 to 6 days old)
# Description: (§1) Sixteen calves (4 to 6 days old) obtained from commercial dairy farms were used in this study. The calves were randomly assigned to receive one of the four formulations (Table 3). Animals were gently restrained and the hair around the horn bud region was clipped. The formulations (0.3 to 0.5 mL) were then injected subcutaneously under the right horn bud or around the right horn bud using a McLintock syringe and needle (22G 11/64″, 0.71*4.3 mm) which delivered 0.1 mL on each injection. The left horn bud acted as control. The details of the treatment are given in the below Table 3. […] The differences in the growth rate of the right and left horn buds were determined by measuring the height of the horn buds at regular intervals. Photos of the horn buds were taken at the same time. Calves will be euthanized after 4 months by intravenous injection of pentobarbitone sodium (100 mg/kg bodyweight) for gross pathology and histopathology of horn buds.
# horn-bud tissue = settings: injected under the horn bud; Sutherland et al 2019; cited from earlier work
# [3] = Example 1: pain response and procedure time; type: in vivo, calves (bovine dairy calves, 7 days of age)
# Description: (§2) A study was performed to test the disbudding efficacy from the administration to horn buds of mepacrine dihydrochloride, compared to a conventional hot iron disbudding method. The mepacrine dihydrochloride was administered as compositions comprising mepacrine dihydrochloride suspended in water. The compositions were prepared by dispersing mepacrine dihydrochloride powder into water for injection. Immediately before administration the compositions were shaken to re-suspend the mepacrine dihydrochloride.
# (§3) The administration of the mepacrine dihydrochloride was performed by injecting the mepacrine dihydrochloride composition using a McLintock pre-set syringe configured to administer up to 0.5 mL. The single dose administration for groups 1 to 4 was performed by injecting the composition directly into the horn bud. The divided dose administration for groups 5 to 8 was performed by injecting the smaller doses to the area immediately around the horn bud. The animals in control group 9 were first treated with a 2% lignocaine injection as a cornual nerve block and then disbudded using a conventional hot-iron.
# (§4) The animals in the study were bovine dairy calves, progressively enrolled in the study and treated at 7 days of age.
# The administration procedure of disbudding by administering mepacrine was less than 1 minute for each animal, compared to 5-10 minutes for the animals disbudded with the hot-iron.
# horn buds [4] = experiment: General conclusion on chemical disbudding agents: efficacy; type: in vivo, calves
# Description: as §2
# (§5) A study on calves was performed to test the disbudding efficacy from the administration to horn buds of chloroquine diphosphate and polidocanol.
# as §1
# horn buds [5] = experiment: Example 1: disbudding efficacy of mepacrine dihydrochloride suspended in water, 90 days observation; type: in vivo, calves (bovine dairy calves, 7 days of age); settings: for Horn growth / Scurs / Success rate / No horn growth: 10 animals treated, 90 days
# Description: as §2
# The animals in the study (calves) were divided into multiple groups. Groups 1 to 4 were administered a single dose of 0.5 mL of mepacrine dihydrochloride composition, with each being administered a composition with a different concentration of mepacrine dihydrochloride, ranging from 50 mg/mL to 400 mg/mL.
# Groups 5 to 8 were administered a divided dose of 0.5 mL of mepacrine dihydrochloride composition, with each being administered a composition with a different concentration of mepacrine dihydrochloride, ranging from 50 mg/mL to 400 mg/mL. Each divided dose comprised 5 doses of 0.1 mL administered around the horn bud.
# as §3
# The left horn bud on each animal was left untreated as a control.
# as §4
# The success rate is based on the proportion of treated horn buds that had no subsequent horn growth or presence of a scur. A horn scur is a distorted horn that is not attached to the skull. […] The untreated horn bud on every animal developed into a horn.
# [6] = prior trials; cited from earlier work
# horn bud tissue = settings: as a cryogenic fluid; cited from earlier work
# horn bud = settings: high concentrations injected into the horn bud; Koger 1976; cited from earlier work
# horn buds [7] = experiment: Example 2: disbudding efficacy of chloroquine diphosphate and polidocanol, 90 days observation; type: in vivo, calves; settings: for Horn growth / Scurs / Success rate / No horn growth: 90 days
# Description: as §5
# The chloroquine diphosphate was administered as compositions comprising chloroquine diphosphate suspended in water. The compositions were prepared by dispersing chloroquine diphosphate powder into water for injection. Immediately before administration the compositions were shaken to re-suspend the chloroquine diphosphate.
# (§6) The polidocanol was administered either as undiluted polidocanol when administered at 100% concentration, or as a diluted solution with water for the 90%, 50% and 10% concentration groups.
# The animals in the study were divided into multiple groups. Groups 1 and 2 were administered saline solution (0.9% sodium chloride) administered as a single dose for group 1, and as divided doses for group 2. Each divided dose comprised 5 doses of 0.1 mL administered around the horn bud.
# Groups 3 and 4 were administered chloroquine diphosphate at either 100 mg/ml or 300 mg/mL, and groups 5 to 8 were administered polidocanol are different concentrations ranging from 100% to 10% w/v.
# [8] = Example 2: viscosity of the polidocanol compositions (observation); type: physicochemical; settings: eg. 90%
# Description: as §6
# [9] = 50 mg/mL, multiple injections (5 × 0.1 mL)
# [10] = 50 mg/mL, single injection (0.5 mL)
# [11] = 100 mg/mL, multiple injections (5 × 0.1 mL)
# [12] = 100 mg/mL, single injection (0.5 mL)
# [13] = 200 mg/mL, multiple injections (5 × 0.1 mL)
# [14] = 200 mg/mL, single injection (0.5 mL)
# [15] = 400 mg/mL, multiple injections (5 × 0.1 mL)
# [16] = 400 mg/mL, single injection (0.5 mL)
# [17] = 100 mg/mL, single injection (0.5 mL), 3 animals treated
# [18] = 300 mg/ml, single injection (0.5 mL), 4 animals treated
# [19] = 50% polidocanol (0.5 mL), 4 animals treated
# [20] = 90% polidocanol (0.5 mL), 4 animals treated
# [21] = 100% polidocanol (0.5 mL), 1 animal treated
molecule,measurement,setting,value
C=CCc1ccc(O)c(OC)c1 [Eugenol],Height of right horn bud on 40th day,horn buds [1]; 0.2 mL under the horn bud,(5-5) mm
same,Height of right horn bud on 80th day,horn buds [1]; 0.2 mL under the horn bud,(5-5) mm
same,"Horn growth rate (height of horn buds on 80th day minus height on 40th day), right horn bud",horn buds [1]; 0.2 mL under the horn bud,0 mm
same,Height of right horn bud on 40th day,horn buds [1]; 0.3 mL under the horn bud,(8-8) mm
same,Height of right horn bud on 80th day,horn buds [1]; 0.3 mL under the horn bud,(8-8) mm
same,"Horn growth rate (height of horn buds on 80th day minus height on 40th day), right horn bud",horn buds [1]; 0.3 mL under the horn bud,0 mm
same,Height of right horn bud on 40th day,horn buds [1]; 0.4 mL around the horn bud,17 mm
same,Height of right horn bud on 80th day,horn buds [1]; 0.4 mL around the horn bud,19 mm
same,"Horn growth rate (height of horn buds on 80th day minus height on 40th day), right horn bud",horn buds [1]; 0.4 mL around the horn bud,2mm
same,Height of right horn bud on 40th day,horn buds [1]; 0.5 mL around the horn bud,8 mm
same,Height of right horn bud on 80th day,horn buds [1]; 0.5 mL around the horn bud,10 mm
same,"Horn growth rate (height of horn buds on 80th day minus height on 40th day), right horn bud",horn buds [1]; 0.5 mL around the horn bud,2 mm
same,Height of right horn bud on 40th day,horn buds [1]; 0.5 mL under the horn bud,14 mm
same,Height of right horn bud on 80th day,horn buds [1]; 0.5 mL under the horn bud,22 mm
same,"Horn growth rate (height of horn buds on 80th day minus height on 40th day), right horn bud",horn buds [1]; 0.5 mL under the horn bud,8 mm
same,"Effective (number of animals), subjective assessment of efficacy","horn buds [1]; N = 5 (aqueous mepacrine), 5 (eugenol), 2 (20:80), 3 (80:20)",3
same,"Ineffective (number of animals), subjective assessment of efficacy","horn buds [1]; N = 5 (aqueous mepacrine; around the horn bud), 5 (eugenol), 3 (80:20; around the horn bud)",2
same,"Ineffective, of these around the horn bud (number of animals)","horn buds [1]; eugenol, N = 5, around the horn bud",1
same,Character and course of the swelling,[2]; following the injection,painless to touch and resolved after few days
same,Swelling around the horn buds,[2]; following the injection,Swelling around the horn buds was observed; also recorded: Painless swelling at site of injection
same,Swelling and scars at the site of injection,[2]; main finding 4,slight swelling and scars at the site of injection
same,Scars and depression at the site of injection,[2]; site of injection,scars and depression were seen at the site of injection
same,Disbudding efficacy,horn-bud tissue,"relatively ineffective, delaying rather preventing horn growth in many cases"
CCN(CC)CCCC(C)Nc1c2ccc(Cl)cc2nc2ccc(OC)cc12 (stereo not drawn) [Mepacrine dihydrochloride],Pain response,[3]; after mepacrine disbudding treatment,very little pain response
same,Discomfort and pain reactions/behaviour,[3]; during administration,very little discomfort during administration and showed no pain reactions/behaviour
same,Discomfort / pain activity during and after injections,[3]; during injections and after completion,discomfort during the injections and no subsequent pain activity after completion of the injections
same,Function as chemical disbudding agents,horn buds [4],effective chemical disbudding agents
same,Horn growth,horn buds [5]; [9],9
same,Scurs,horn buds [5]; [9],1
same,Success rate,horn buds [5]; [9],0%
same,Horn growth,horn buds [5]; [10],7
same,No horn growth,horn buds [5]; [10],3
same,Success rate,horn buds [5]; [10],30%
same,Horn growth,horn buds [5]; [11],2
same,No horn growth,horn buds [5]; [11],5
same,Scurs,horn buds [5]; [11],3
same,Success rate,horn buds [5]; [11],50%
same,Horn growth,horn buds [5]; [12],7
same,No horn growth,horn buds [5]; [12],3
same,Success rate,horn buds [5]; [12],30%
same,No horn growth,horn buds [5]; [13],9
same,Scurs,horn buds [5]; [13],1
same,Success rate,horn buds [5]; [13],90%
same,Horn growth,horn buds [5]; [14],1
same,No horn growth,horn buds [5]; [14],8
same,Scurs,horn buds [5]; [14],1
same,Success rate,horn buds [5]; [14],80%
same,Horn growth,horn buds [5]; [15],1
same,No horn growth,horn buds [5]; [15],7
same,Scurs,horn buds [5]; [15],2
same,Success rate,horn buds [5]; [15],70%
same,No horn growth,horn buds [5]; [16],8
same,Scurs,horn buds [5]; [16],2
same,Success rate,horn buds [5]; [16],80%
same,Success rate (in words),"horn buds [5]; 0.5 mL of 200 mg/mL and 400 mg/L (so in the source), single injection and divided dose",high success rates
same,Success rate by concentration (in words),horn buds [5]; 200 and 400 mg/mL vs 50 and 100 mg/mL,higher success rate in the higher concentration groups of 200 and 400 mg/mL
same,Advantage of splitting the dose into multiple injections,horn buds [5]; single vs multiple injections,no noticeable advantage
[Na+].[OH-] [caustic soda],Adverse effects,[6],can lead to blindness of the treated animals
liquid nitrogen,Destruction of horn bud tissue,horn bud tissue,almost entirely ineffective
[Ca+2].[Cl-].[Cl-] [calcium chloride],Inflammation,horn bud,significant inflammation
same,Necrosis of the tissue,horn bud,causing necrosis of the tissue
CCN(CC)CCCC(C)Nc1ccnc2cc(Cl)ccc12 (stereo not drawn) [Chloroquine diphosphate],Function as chemical disbudding agents,horn buds [4],effective chemical disbudding agents
same,Horn growth,horn buds [7]; [17],2
same,Scurs,horn buds [7]; [17],1
same,Success rate,horn buds [7]; [17],0%
same,Disbudding success (in words),horn buds [7]; 300 mg/mL,some success
same,Horn growth outcome (in words),horn buds [7]; 300 mg/mL,"half the animals having no horn growth at all, and the other have having only scurs forming"
same,No horn growth,horn buds [7]; [18],2
same,Scurs,horn buds [7]; [18],2
same,Success rate,horn buds [7]; [18],50%
Polidocanol,Viscosity of the higher concentration compositions,[8],highly viscous
same,Function as chemical disbudding agents,horn buds [4],effective chemical disbudding agents
same,No horn growth,"horn buds [7]; 10% polidocanol (0.5 mL), 1 animal treated",1
same,Horn growth,horn buds [7]; [19],3
same,Scurs,horn buds [7]; [19],1
same,Success rate,horn buds [7]; [19],0%
same,Horn growth,horn buds [7]; [20],1
same,No horn growth,horn buds [7]; [20],1
same,Scurs,horn buds [7]; [20],2
same,Success rate,horn buds [7]; [20],25%
same,Disbudding success (in words),horn buds [7]; 100% concentration and 10% concentration,successful
same,No horn growth,horn buds [7]; [21],1
same,Success rate,horn buds [7]; [21],100%
same,Disbudding success (in words),"horn buds [7]; other concentrations (90%, 50%)",less successful
